In patent US20230139171A1 (SITA Information Networking Computing UK Limited, priority 2019, published 2023) one finds IC50 data, which are given here for one compound.

Usually IC50 stands for the concentration that inhibits the measured activity by half.

One experiment has as its target T1, human TLR7 (Homo sapiens, UniProt Q9NYK1).
T1 construct: host or cells: HEK-Blue cells
T1 sequence (Q9NYK1 27-1049): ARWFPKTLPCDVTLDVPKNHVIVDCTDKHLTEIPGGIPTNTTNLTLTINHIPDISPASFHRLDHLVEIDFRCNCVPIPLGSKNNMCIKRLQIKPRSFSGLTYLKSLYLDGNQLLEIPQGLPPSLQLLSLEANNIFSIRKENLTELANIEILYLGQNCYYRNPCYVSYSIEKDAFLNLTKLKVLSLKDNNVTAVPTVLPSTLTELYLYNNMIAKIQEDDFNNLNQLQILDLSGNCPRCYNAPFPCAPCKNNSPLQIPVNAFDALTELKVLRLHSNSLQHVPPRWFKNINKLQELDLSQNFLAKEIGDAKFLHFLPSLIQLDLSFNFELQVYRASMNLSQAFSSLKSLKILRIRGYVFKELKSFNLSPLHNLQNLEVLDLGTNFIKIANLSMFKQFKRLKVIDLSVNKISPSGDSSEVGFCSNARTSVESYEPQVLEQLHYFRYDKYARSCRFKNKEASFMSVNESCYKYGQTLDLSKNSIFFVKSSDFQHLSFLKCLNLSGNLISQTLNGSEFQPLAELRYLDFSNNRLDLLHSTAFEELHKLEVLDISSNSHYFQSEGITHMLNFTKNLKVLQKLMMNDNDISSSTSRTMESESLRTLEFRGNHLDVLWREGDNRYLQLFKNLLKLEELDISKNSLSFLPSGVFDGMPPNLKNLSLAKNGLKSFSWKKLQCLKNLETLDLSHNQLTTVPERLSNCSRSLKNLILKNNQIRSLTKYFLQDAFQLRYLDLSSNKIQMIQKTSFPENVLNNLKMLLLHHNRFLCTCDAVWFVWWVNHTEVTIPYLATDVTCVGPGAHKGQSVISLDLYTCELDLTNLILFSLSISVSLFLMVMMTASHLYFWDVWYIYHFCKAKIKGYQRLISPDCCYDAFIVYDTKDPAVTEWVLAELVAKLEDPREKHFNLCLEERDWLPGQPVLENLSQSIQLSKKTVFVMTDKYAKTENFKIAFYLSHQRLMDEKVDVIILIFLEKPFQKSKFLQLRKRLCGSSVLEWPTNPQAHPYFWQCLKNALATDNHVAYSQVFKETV
Nature of the experiment: TLR7 inhibition reporter assay (HEK-Blue cells, SEAP reporter, gardiquimod stimulation). In kind it is cell-based. The following applies: HEK-Blue cells overexpressing human TLR7, SEAP reporter, gardiquimod 7.5 μM; read-out: TLR7 IC50. Put shortly:
(§1)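 Compound treatment: 30 min, RT, 0.05 nM–50 μM final. Agonist: TLR7 gardiquimod 7.5 μM; TLR8 R848 15.9 μM; TLR9 ODN2006 5 nM. Incubation 22 h, 37 °C, 5% CO2. Readout SEAP, HEK-Blue Detection.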
In general terms: Reporter assays use an easily measured gene product as a stand-in for the process of interest.

Another experiment addresses T2, human TLR9 (Homo sapiens, UniProt Q9NR96).
T2 construct: host or cells: HEK-Blue cells
T2 sequence (Q9NR96 26-1032): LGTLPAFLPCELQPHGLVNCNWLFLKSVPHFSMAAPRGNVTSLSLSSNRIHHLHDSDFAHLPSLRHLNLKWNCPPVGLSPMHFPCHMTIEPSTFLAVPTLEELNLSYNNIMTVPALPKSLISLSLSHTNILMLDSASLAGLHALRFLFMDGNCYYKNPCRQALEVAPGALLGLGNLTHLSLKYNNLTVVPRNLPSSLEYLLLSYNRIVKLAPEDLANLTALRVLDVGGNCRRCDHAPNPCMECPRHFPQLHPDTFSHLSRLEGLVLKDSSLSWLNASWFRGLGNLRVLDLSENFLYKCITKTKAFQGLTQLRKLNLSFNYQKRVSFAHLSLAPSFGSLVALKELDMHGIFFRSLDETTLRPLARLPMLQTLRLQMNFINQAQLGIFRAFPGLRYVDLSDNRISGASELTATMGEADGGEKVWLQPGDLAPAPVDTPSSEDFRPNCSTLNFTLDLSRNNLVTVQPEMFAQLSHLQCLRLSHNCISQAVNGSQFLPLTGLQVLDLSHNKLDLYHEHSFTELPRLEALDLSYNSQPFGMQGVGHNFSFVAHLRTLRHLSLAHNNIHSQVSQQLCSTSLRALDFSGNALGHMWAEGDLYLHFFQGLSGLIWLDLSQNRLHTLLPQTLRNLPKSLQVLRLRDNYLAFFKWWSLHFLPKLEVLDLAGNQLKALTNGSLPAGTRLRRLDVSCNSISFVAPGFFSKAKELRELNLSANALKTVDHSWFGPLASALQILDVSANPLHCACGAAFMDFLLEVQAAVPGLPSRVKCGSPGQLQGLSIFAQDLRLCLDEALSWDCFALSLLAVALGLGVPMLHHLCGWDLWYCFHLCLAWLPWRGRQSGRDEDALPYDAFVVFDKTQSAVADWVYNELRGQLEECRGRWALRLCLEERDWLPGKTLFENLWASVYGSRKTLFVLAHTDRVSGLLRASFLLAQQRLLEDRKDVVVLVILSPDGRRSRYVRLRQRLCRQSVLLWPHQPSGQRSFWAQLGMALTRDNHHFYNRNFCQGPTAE
Nature of the experiment: TLR9 inhibition reporter assay (HEK-Blue cells, SEAP reporter, ODN2006 stimulation). The format is cell-based. To be noted: HEK-Blue cells overexpressing human TLR9, SEAP reporter, ODN2006 5 nM. Put shortly: as §1

As for `COc1cc(-c2[nH]c3sc(C4CCC(NC5COC5)CC4)nc3c2C(C)C)cn2ncnc12` (single isomer, unassigned) [Example 65, N-(4-(6-isopropyl-5-(8-methoxy-[1,2,4]triazolo[1,5-a]pyridin-6-yl)-4H-pyrrolo[3,2-d]thiazol-2-yl)cyclohexyl)oxetan-3-amine], the IC50 on human TLR7 came out at 0.00055 µM; on human TLR9, 10.1 µM.
